Source: patent publication US6737383B1, “Herbicidal oxadiazolidines” (priority 1999, dated 2004)

What was measured:
rice = assay: Test B flood test rice; format: in vivo, Oryza sativa
Summary of the method: (§1)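 Flood test on plants grown to the 2-leaf stage; treated plants kept in greenhouse twelve to sixteen days, then visually rated against controls on a 0 (no effect) to 10 (complete control) scale.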

wheat = assay: Test B pre/postemergence wheat; format: in vivo, Triticum aestivum
Summary of the method: (§2)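 Response is a visual 0-to-10 score relative to untreated plants, where 0 means no effect and 10 means complete control, taken twelve to sixteen days after application. Treatments went onto soil at planting and onto foliage of 1- to 4-leaf plants, using a surfactant-containing non-phytotoxic solvent.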

corn = assay: Test B pre/postemergence corn; format: in vivo, Zea mays
Summary of the method: as §2

rape = assay: Test B pre/postemergence rape; format: in vivo, Brassica napus
Summary of the method: as §2

giant foxtail = assay: Test B pre/postemergence giant foxtail; format: in vivo, Setaria faberii
Summary of the method: as §2

smallflower flatsedge = assay: Test B flood test smallflower flatsedge; format: in vivo, Cyperus difformis
Summary of the method: as §1

surinam grass = assay: Test B pre/postemergence surinam grass; format: in vivo, Brachiaria decumbens
Summary of the method: as §2

sugar beet = assay: Test B pre/postemergence sugar beet; format: in vivo, Beta vulgaris
Summary of the method: as §2

crabgrass = assay: Test B pre/postemergence crabgrass; format: in vivo, Digitaria sanguinalis
Summary of the method: as §2

morningglory = assay: Test B pre/postemergence morningglory; format: in vivo, Ipomoea hederacea
Summary of the method: as §2

purple nutsedge = assay: Test B pre/postemergence purple nutsedge; format: in vivo, Cyperus rotundus
Summary of the method: as §2

bamyardgrass = assay: Test B flood test barnyardgrass; format: in vivo, Echinochloa crus-galli
Summary of the method: as §1

wild oat = assay: Test B pre/postemergence wild oat; format: in vivo, Avena fatua
Summary of the method: as §2

blackgrass = assay: Test B pre/postemergence blackgrass; format: in vivo, Alopecurus myosuroides
Summary of the method: as §2

bedstraw = assay: Test B pre/postemergence bedstraw; format: in vivo, Galium aparine
Summary of the method: as §2

pigweed = assay: Test B pre/postemergence pigweed; format: in vivo, Amaranthus retroflexus
Summary of the method: as §2

[1] = Rate 62 g/ha, headed Pre-emergence (flood test species), scale 0 to 10 (0 no effect, 10 complete control)
[2] = Rate 125 g/ha, Pre-emergence, flood test species, scale 0 to 10 where 0 is no effect and 10 is complete control
[3] = Rate 250 g/ha, Pre-emergence, flood-test species, scale 0 to 10, 0 is no effect, 10 is complete control
[4] = Rate 500 g/ha, headed Pre-emergence (flood test species), scale 0 to 10 (0 no effect, 10 complete control)
[5] = Preemergence, Rate 62 g/ha, scale of 0 to 10 where 0 is no effect and 10 is complete control
[6] = Preemergence, Rate 250 g/ha, scale 0 to 10, 0 is no effect, 10 is complete control
[7] = Preemergence, Rate 500 g/ha, scale 0 to 10 (0 no effect, 10 complete control)
[8] = Rate 125 g/ha, Postemergence, scale 0 to 10
[9] = Preemergence, Rate 125 g/ha, 0 is no effect, 10 is complete control
[10] = Rate 62 g/ha, Postemergence, scale of 0 to 10 where 0 is no effect and 10 is complete control
[11] = Rate 500 g/ha, Postemergence, scale 0 to 10

Cc1ccccc1-n1c(=O)on(C(=O)N(c2ccc(Cl)cc2Cl)C(C)C)c1=O [Compound 185]
Rice plant response rating (rice; [1]): 0 | Rice plant response rating (rice; [2]): 0 | Rice plant response rating (rice; [3]): 0 | Plant response rating, Rice (rice; [4]): 0 | Wheat plant response rating (wheat; [5]): 0 | Wheat plant response rating (wheat; [6]): 0 | Wheat plant response rating (wheat; [7]): 0 | Wheat plant response rating (wheat; [8]): 0 | Plant response rating (0 to 10; 0 is no effect, 10 is complete control), Wheat (wheat; Rate 250 g/ha, Postemergence): 0 | Corn plant response rating (corn; [5]): 0 | Corn plant response rating (0 to 10 scale) (corn; [9]): 0 | Corn plant response rating (corn; [6]): 0 | Corn plant response rating (corn; [7]): 0 | Corn plant response rating (corn; [10]): 0 | Corn plant response rating (corn; [8]): 0 | Plant response rating (0 to 10; 0 is no effect, 10 is complete control), Corn (corn; Rate 250 g/ha, Postemergence): 0 | Corn plant response rating (corn; [11]): 0 | Rape plant response rating (rape; [5]): 0 | Rape plant response rating (0 to 10 scale) (rape; [9]): 0 | Rape plant response rating (rape; [6]): 0 | Rape plant response rating (rape; [7]): 0 | Rape plant response rating (rape; [10]): 0 | Rape plant response rating (rape; [8]): 0 | Plant response rating (0 to 10; 0 is no effect, 10 is complete control), Rape (rape; Rate 250 g/ha, Postemergence): 0 | Rape plant response rating (rape; [11]): 0 | Giant foxtail plant response rating (giant foxtail; [5]): 0 | Giant foxtail plant response rating (0 to 10 scale) (giant foxtail; [9]): 5 | Giant foxtail plant response rating (giant foxtail; [6]): 9 | Giant foxtail plant response rating (giant foxtail; [7]): 9 | Giant foxtail plant response rating (giant foxtail; [10]): 0 | Giant foxtail plant response rating (giant foxtail; [8]): 0 | Plant response rating (0 to 10; 0 is no effect, 10 is complete control), Giant foxtail (giant foxtail; Rate 250 g/ha, Postemergence): 0 | Giant foxtail plant response rating (giant foxtail; [11]): 1 | S. Flatsedge plant response rating (smallflower flatsedge; [1]): 0 | S. Flatsedge plant response rating (smallflower flatsedge; [2]): 0 | S. Flatsedge plant response rating (smallflower flatsedge; [3]): 0 | S. Flatsedge plant response rating (smallflower flatsedge; Rate 500 g/ha, Pre-emergence, flood test species, scale 0 to 10 (0 no effect, 10 complete control)): 0 | B. signalgrass plant response rating (surinam grass; [5]): 0 | B. signalgrass plant response rating (0 to 10 scale) (surinam grass; [9]): 0 | B. signalgrass plant response rating (surinam grass; [6]): 0 | B. signalgrass plant response rating (surinam grass; [7]): 0 | B. signalgrass plant response rating (surinam grass; [10]): 0 | B. signalgrass plant response rating (surinam grass; Rate 125 g/ha, Postemergence, scale 0 (no effect) to 10 (complete control)): 0 | Plant response rating, B. signalgrass (surinam grass; Rate 250 g/ha, Postemergence, scale 0 to 10, 0 is no effect, 10 is complete control): 0 | B. signalgrass plant response rating (surinam grass; Rate 500 g/ha, Postemergence, scale 0 to 10, 0 no effect, 10 complete control): 0 | Sugarbeets plant response rating (sugar beet; [5]): 0 | Sugarbeets plant response rating (0 to 10 scale) (sugar beet; [9]): 0 | Sugarbeets plant response rating (sugar beet; [6]): 0 | Sugarbeets plant response rating (sugar beet; [7]): 0 | Sugarbeets plant response rating (sugar beet; [10]): 0 | Sugarbeets plant response rating (sugar beet; [8]): 0 | Plant response rating (0 to 10; 0 is no effect, 10 is complete control), Sugarbeets (sugar beet; Rate 250 g/ha, Postemergence): 0 | Sugarbeets plant response rating (sugar beet; [11]): 0 | Crabgrass plant response rating (crabgrass; [5]): 2 | Crabgrass plant response rating (0 to 10 scale) (crabgrass; [9]): 6 | Crabgrass plant response rating (crabgrass; [6]): 7 | Crabgrass plant response rating (crabgrass; [7]): 9 | Crabgrass plant response rating (crabgrass; [10]): 0 | Crabgrass plant response rating (crabgrass; [8]): 1 | Crabgrass plant response rating (crabgrass; [11]): 1 | Morningglory plant response rating (morningglory; [5]): 0 | Morningglory plant response rating (0 to 10 scale) (morningglory; [9]): 0 | Morningglory plant response rating (morningglory; [6]): 0 | Morningglory plant response rating (morningglory; [7]): 0 | Morningglory plant response rating (morningglory; [10]): 1 | Morningglory plant response rating (morningglory; [8]): 1 | Plant response rating (0 to 10; 0 is no effect, 10 is complete control), Morningglory (morningglory; Rate 250 g/ha, Postemergence): 1 | Morningglory plant response rating (morningglory; [11]): 2 | Nutsedge plant response rating (purple nutsedge; [6]): 0 | Nutsedge plant response rating (purple nutsedge; [7]): 0 | Nutsedge plant response rating (purple nutsedge; [10]): 0 | Nutsedge plant response rating (purple nutsedge; [8]): 0 | Plant response rating (0 to 10; 0 is no effect, 10 is complete control), Nutsedge (purple nutsedge; Rate 250 g/ha, Postemergence): 0 | Nutsedge plant response rating (purple nutsedge; [11]): 0 | Barnyardgrass plant response rating (bamyardgrass; [1]): 0 | Barnyardgrass plant response rating (bamyardgrass; [2]): 0 | Barnyardgrass plant response rating (bamyardgrass; [3]): 0 | Plant response rating, Barnyardgrass (bamyardgrass; [4]): 0 | Wild oats plant response rating (wild oat; [5]): 0 | Wild oats plant response rating (wild oat; [6]): 0 | Wild oats plant response rating (wild oat; [7]): 0 | Wild oats plant response rating (wild oat; [8]): 0 | Plant response rating (0 to 10; 0 is no effect, 10 is complete control), Wild oats (wild oat; Rate 250 g/ha, Postemergence): 0 | Blackgrass plant response rating (blackgrass; [5]): 0 | Blackgrass plant response rating (0 to 10 scale) (blackgrass; [9]): 0 | Blackgrass plant response rating (blackgrass; [6]): 0 | Blackgrass plant response rating (blackgrass; [7]): 0 | Blackgrass plant response rating (blackgrass; [10]): 0 | Blackgrass plant response rating (blackgrass; [8]): 0 | Plant response rating (0 to 10; 0 is no effect, 10 is complete control), Blackgrass (blackgrass; Rate 250 g/ha, Postemergence): 0 | Blackgrass plant response rating (blackgrass; [11]): 0 | Bedstraw plant response rating (bedstraw; [5]): 0 | Bedstraw plant response rating (0 to 10 scale) (bedstraw; [9]): 0 | Bedstraw plant response rating (bedstraw; [6]): 0 | Bedstraw plant response rating (bedstraw; [7]): 0 | Bedstraw plant response rating (bedstraw; [10]): 0 | Bedstraw plant response rating (bedstraw; [8]): 0 | Plant response rating (0 to 10; 0 is no effect, 10 is complete control), Bedstraw (bedstraw; Rate 250 g/ha, Postemergence): 3 | Bedstraw plant response rating (bedstraw; [11]): 3 | Redroot pigweed plant response rating (pigweed; [5]): 0 | Redroot pigweed plant response rating (0 to 10 scale) (pigweed; [9]): 0 | Redroot pigweed plant response rating (pigweed; [6]): 0 | Redroot pigweed plant response rating (pigweed; [7]): 0 | Redroot pigweed plant response rating (pigweed; [10]): 0 | Redroot pigweed plant response rating (pigweed; [8]): 1 | Plant response rating (0 to 10; 0 is no effect, 10 is complete control), Redroot pigweed (pigweed; Rate 250 g/ha, Postemergence): 3 | Redroot pigweed plant response rating (pigweed; [11]): 4
